Test results from PMC6272341, “Synthesis and Biological Evaluation of N-Alkoxyphenyl-3-hydroxynaphthalene-2-carboxanilides” (Molecules, 2015).
Converted amounts (≈) assume the structure as drawn. Where two headings read alike, the source gives them in different places.

Experiments:
[1] = system: methicillin-resistant S. aureus clinical isolate MRSA 63718; assay: In vitro antibacterial susceptibility testing, broth dilution micro-method (MIC); conditions: for MIC: Staphylococcus aureus, MRSA, read-out: MIC MRSA 63718, clinical isolate MRSA 63718
[2] = system: methicillin-resistant S. aureus clinical isolate SA 630; assay: as above; conditions: 24 h; for MIC: Staphylococcus aureus, MRSA, read-out: MIC MRSA SA 630, clinical isolate MRSA SA 630, 37 °C, MH broth
[3] = system: methicillin-resistant S. aureus clinical isolate SA 3202; assay: as above; conditions: 24 h; for MIC: Staphylococcus aureus, MRSA, read-out: MIC MRSA 3202, clinical isolate MRSA 3202, 37 °C, MH broth
[4] = system: M. tuberculosis H37Ra ATCC 25177; assay: In vitro antimycobacterial evaluation, alamarBlue (MIC); assay type: cell-based; conditions: Mycobacterium tuberculosis, 168 h; M. tuberculosis H37Ra; 7 days, 37 °C, alamarBlue; MIC/IC90; read-out: MIC MT
Description: The evaluation of the in vitro antimycobacterial activity of the compounds was performed against M. tuberculosis H37Ra ATCC 25177 [25] and clinical isolate of M. avium subsp. paratuberculosis CIT03 [26], see Table 1. The activity of compounds was expressed as the minimum inhibitory concentration (MIC) that is defined for mycobacteria as a 90% or greater (IC90) reduction of growth in comparison with the control. The MIC/IC90 value is routinely and widely used in bacterial assays, being a standard detection limit according to the Clinical and Laboratory Standards Institute.
Mycobacterium tuberculosis H37Ra ATCC 25177 and well characterised clinical isolate M. avium subsp. paratuberculosis CIT03 were grown in Middlebrook broth (MB), supplemented with Oleic-Albumin-Dextrose-Catalase supplement (Becton Dickinson, Oxford, UK) and mycobactin J (2 μg/mL). Identification of these isolates was performed using biochemical and molecular protocols. At log phase growth, a culture sample (10 mL) was centrifuged at 15,000 rpm/20 min using a bench top centrifuge (Model CR 4-12, Jouan Inc., Winchester, VA, USA). Following removal of the supernatant, the pellet was washed in fresh Middlebrook 7H9GC broth and re-suspended in fresh supplemented MB (10 mL). The turbidity was adjusted to match McFarland standard No. 1 (3 × 10^8 cfu) with MB broth. A further 1:20 dilution of the culture was then performed in MB broth. The antimicrobial susceptibility of all three mycobacterial species was investigated in a 96-well plate format. In these experiments, sterile deionised water (300 µL) was added to all outer-perimeter wells of the plates to minimize evaporation of the medium in the test wells during incubation. Sample wells were composed of 100 µL of test compound dilution and 100 µL of the bacterial stock being tested against. Dilutions of each compound were prepared in duplicate. For all synthesized compounds, final concentrations ranged from 1000 μg/mL to 8 μg/mL. All compounds were prepared in DMSO and subsequent dilutions were made in supplemented MB. The plates were sealed with parafilm and incubated at 37 °C, for 7 days in the case of M. tuberculosis and 11 days in the case of M. avium subsp. paratuberculosis. Following incubation, a 10% addition of alamarBlue (AbD Serotec, Kidlington, UK) was mixed into each well and readings at 570 nm and 600 nm were taken, initially for background subtraction and subsequently after 24 h re-incubation. The background subtraction is necessary for strongly coloured compounds, where the colour may interfere with the interpretation of any colour change. For non-interfering compounds, a blue colour in the well was interpreted as an absence of growth and a pink colour was scored as growth. […] The MIC value is routinely and widely used in bacterial assays and is a standard detection limit according to the Clinical and Laboratory Standards Institute (CLSI,). Rifampicin (Sigma-Aldrich) was used as the standard as it is clinically used antimycobacterial drugs.

S. aureus ATCC 29213 = assay: In vitro antibacterial susceptibility testing, broth dilution micro-method (MIC); conditions: Staphylococcus aureus, ATCC29213, 24 h, read-out: MIC SA
[5] = system: photosynthetic electron transport in spinach chloroplasts; assay: Inhibition of photosynthetic electron transport (PET), DCPIP photoreduction (Hill reaction); assay type: biochemical, spinach (Spinacia oleracea L.)
Description: The PET inhibiting activity of the compounds was expressed by IC50 values. […] The aqueous solubility of the para-substituted compounds was limited; therefore IC50 values could not be determined due to precipitation of compounds during experiment. […]
Chloroplasts were prepared from spinach (Spinacia oleracea L.) according to Masarovicova and Kralova. The inhibition of photosynthetic electron transport (PET) in spinach chloroplasts was determined spectrophotometrically (Genesys 6, Thermo Scientific Corporation), using an artificial electron acceptor 2,6-dichlorophenol-indophenol (DCPIP) according to Kralova et al., and the rate of photosynthetic electron transport was monitored as a photoreduction of DCPIP. The measurements were carried out in phosphate buffer (20.0 mM, pH 7.2) containing sucrose (0.4 M), MgCl2 (5.0 mM) and NaCl (15.0 mM). The chlorophyll content was 30 mg/L in these experiments and the samples were irradiated (~100 W/m^2 with 10 cm distance) with a halogen lamp (250 W) using a 4 cm water filter to prevent warming of the samples (suspension temperature 22 °C). The studied compounds were dissolved in DMSO due to their limited aqueous solubility. The applied DMSO concentration (up to 4%) had negligible effect on the photochemical activity in isolated spinach chloroplasts (observed differences in DCPIP photoreduction due DMSO addition were within experimental error). The inhibitory efficiency of the studied compounds was expressed by IC50 values, i.e., by molar concentration of the compounds causing 50% decrease in DCPIP photoreduction relative to the untreated control. […] All reagents used in this study were of analytical grade and were purchased from Sigma.

[6] = system: clinical isolate of M. avium subsp. paratuberculosis CIT03; assay: In vitro antimycobacterial evaluation, alamarBlue (MIC); assay type: cell-based; conditions: Mycobacterium avium, 264 h, read-out: MIC MAP
[7] = system: human monocytic leukemia THP-1 cells; conditions: 24 h
[8] = M. avium subsp. paratuberculosis CIT03, 11 days, 37 °C, alamarBlue, MIC/IC90

`CCCOc1ccccc1NC(=O)c1cc2ccccc2cc1O` [Compound 5a, 3-Hydroxy-N-(2-propoxyphenyl)naphthalene-2-carboxamide] was tested, and the MIC ([1]; 24 h, 24 h, 37 °C, MH broth) was 12 µM (≈ 3.86 µg/mL), the “activity fold higher than that of ampicillin” value ([1]; antibacterial activity against MRSA strains versus ampicillin) was ~4 fold and the “MIC MRSA 63718” value ([1]; clinical isolate MRSA 63718, 24 h, 37 °C, MH broth) was 12.4 µM (≈ 3.99 µg/mL). For the same compound, the MIC [2] was 12 µM (≈ 3.86 µg/mL), the “MIC MRSA SA 630” value ([2]; clinical isolate MRSA SA 630, 37 °C, MH broth) was 12.4 µM (≈ 3.99 µg/mL) and the MIC [3] was 12 µM (≈ 3.86 µg/mL). For the same compound, the “MIC MRSA 3202” value ([3]; clinical isolate MRSA 3202, 37 °C, MH broth) was 12.4 µM (≈ 3.99 µg/mL), the MIC [4] was 778 µM (≈ 250 µg/mL) and the MIC (S. aureus ATCC 29213) was 12.4 µM (≈ 3.99 µg/mL). It also gave an IC50 [5] of 128 µM and an MIC [6] of 778 µM (≈ 250 µg/mL).

For `CCCCOc1ccc(NC(=O)c2cc3ccccc3cc2O)cc1` [Compound 6c, N-(4-Butoxyphenyl)-3-hydroxynaphthalene-2-carboxamide], the MIC ([1]; 24 h, 24 h, 37 °C, MH broth) was 763 µM (≈ 256 µg/mL), the MIC [2] was 763 µM (≈ 256 µg/mL) and the LD50 [7] was >30 µM. It also gave an MIC [3] of 763 µM (≈ 256 µg/mL), an MIC [4] of 745 µM (≈ 250 µg/mL) and an MIC (S. aureus ATCC 29213) of 763 µM (≈ 256 µg/mL). For the same compound, the MIC [6] was 745 µM (≈ 250 µg/mL).

For `CCCCOc1ccccc1NC(=O)c1cc2ccccc2cc1O` [Compound 6a, N-(2-Butoxyphenyl)-3-hydroxynaphthalene-2-carboxamide], the MIC ([1]; 24 h, 24 h, 37 °C, MH broth) was 763 µM (≈ 256 µg/mL), the MIC [2] was 763 µM (≈ 256 µg/mL) and the LD50 [7] was >30 µM. For the same compound, the MIC [3] was 763 µM (≈ 256 µg/mL), the MIC [4] was 373 µM (≈ 125 µg/mL) and the MIC (S. aureus ATCC 29213) was 763 µM (≈ 256 µg/mL). For the same compound, the IC50 [5] was 182 µM and the MIC [6, 8] was 745 µM (≈ 250 µg/mL).

`CCCCOc1cccc(NC(=O)c2cc3ccccc3cc2O)c1` [Compound 6b, N-(3-Butoxyphenyl)-3-hydroxynaphthalene-2-carboxamide] gave an MIC ([1]; 24 h, 24 h, 37 °C, MH broth) of 763 µM (≈ 256 µg/mL), an MIC [2] of 763 µM (≈ 256 µg/mL) and an LD50 [7] of 16.5 ± 0.8 µM. For the same compound, the MIC [3] was 763 µM (≈ 256 µg/mL), the MIC [4] was 745 µM (≈ 250 µg/mL) and the MIC (S. aureus ATCC 29213) was 763 µM (≈ 256 µg/mL). It also gave an IC50 [5] of 7.8 µM and an MIC [6] of 745 µM (≈ 250 µg/mL).

With `COc1ccccc1NC(=O)c1cc2ccccc2cc1O` [Compound 3a, 3-hydroxy-N-(2-methoxyphenyl)naphthalene-2-carboxamide] the MIC ([1]; 24 h, 24 h, 37 °C, MH broth) was 55 µM (≈ 16.1 µg/mL), the MIC [2] was 55 µM (≈ 16.1 µg/mL) and the MIC [3] was 55 µM (≈ 16.1 µg/mL). The MIC [4] was 51 µM (≈ 15 µg/mL), the MIC (S. aureus ATCC 29213) was 55 µM (≈ 16.1 µg/mL) and the IC50 [5] was 59.5 µM. It also gave an MIC [6, 8] of 205 µM (≈ 60.1 µg/mL).

With `CCCOc1cccc(NC(=O)c2cc3ccccc3cc2O)c1` [Compound 5b, 3-Hydroxy-N-(3-propoxyphenyl)naphthalene-2-carboxamide] the MIC ([1]; 24 h, 24 h, 37 °C, MH broth) was 796 µM (≈ 256 µg/mL), the MIC [2] was 796 µM (≈ 256 µg/mL) and the MIC [3] was 796 µM (≈ 256 µg/mL). For the same compound, the MIC [4] was 778 µM (≈ 250 µg/mL), the MIC (S. aureus ATCC 29213) was 796 µM (≈ 256 µg/mL) and the IC50 [5] was 4.8 µM. For the same compound, the MIC [6] was 778 µM (≈ 250 µg/mL).

`CCOc1ccccc1NC(=O)c1cc2ccccc2cc1O` [Compound 4a, N-(2-Ethoxyphenyl)-3-hydroxynaphthalene-2-carboxamide] was tested, and the MIC ([1]; 24 h, 24 h, 37 °C, MH broth) was 832 µM (≈ 256 µg/mL), the MIC [2] was 832 µM (≈ 256 µg/mL) and the LD50 [7] was >30 µM. It also gave an MIC [3] of 832 µM (≈ 256 µg/mL), an MIC [4] of 813 µM (≈ 250 µg/mL) and an MIC (S. aureus ATCC 29213) of 832 µM (≈ 256 µg/mL). It also gave an IC50 [5] of 76.1 µM and an MIC [6] of 813 µM (≈ 250 µg/mL).

With `CCC(C)Oc1ccc(NC(=O)c2cc3ccccc3cc2O)cc1` (centres unmarked) [Compound 8c, N-[4-(But-2-yloxy)phenyl]-3-hydroxynaphthalene-2-carboxamide] the MIC ([1]; 24 h, 24 h, 37 °C, MH broth) was 763 µM (≈ 256 µg/mL), the MIC [2] was 763 µM (≈ 256 µg/mL) and the LD50 [7] was >30 µM. For the same compound, the MIC [3] was 763 µM (≈ 256 µg/mL), the MIC [4] was 89 µM (≈ 29.9 µg/mL) and the MIC (S. aureus ATCC 29213) was 763 µM (≈ 256 µg/mL). The MIC [6, 8] was 745 µM (≈ 250 µg/mL).

`CO[C@H]1/C=C/O[C@@]2(C)Oc3c(C)c(O)c4c(O)c(c(/C=N/N5CCN(C)CC5)c(O)c4c3C2=O)NC(=O)/C(C)=C\C=C\[C@H](C)[C@H](O)[C@@H](C)[C@@H](O)[C@@H](C)[C@H](OC(C)=O)[C@@H]1C` [RIF, rifampicin, reference compound] was tested, and the MIC [4] was 10 µM (≈ 8.23 µg/mL) and the MIC [6, 8] was 109 µM (≈ 89.7 µg/mL).
